Test results published in patent US20180369258A1, “ANTI-BACTERIAL COMPOUNDS BASED ON AMINO-GOLD PHOSPHINE COMPLEXES” (priority 2015, published 2018).

Columns and labels:
Type in all cases: cell-based
[1] = test system: human hepatocyte cell line (HepG2); test: HepG2 cell inhibition assay (CCK-8 viability); conditions: 50% growth inhibition vs untreated control, 24 hours
Experimental: Cell counting kit-8 (Sigma, CCK-8) assays were performed to assess the effect of compounds on cell viability. The assay is based on the reduction of a water-soluble tetrazolium salt (WST-8) by cellular dehydrogenases to a formazan dye which can be detected spectroscopically. 96-well plates were seeded with the human hepatocyte cell line (HepG2) at approximately 8×10^3 cells per well in Eagle's Minimum Essential Medium (EMEM) with Earle's salts and sodium bicarbonate supplemented with 10% heat-inactivated foetal bovine serum 2 mM glutamine and 1% non-essential amino acids (NEAA). The following day serial dilutions of compounds (dissolved and diluted in DMSO) were added to the cells in duplicates. Control wells included an ‘untreated’ control where cells were grown in the presence of 1% DMSO and a ‘medium only’ control (plus 1% DMSO). After 24 hours CCK-8 reagent (10 μl) was added to each well and cell viability was assessed by measuring the absorbance at a wavelength of 450 nm after 2-3 h hours. Only living cells can reduce the tetrazolium salts into coloured formazan products. Results were expressed as 50% growth inhibition (TD50) values compared to ‘untreated’ control.

A. baumannii NC13421 = test: Disk diffusion assay, multidrug resistant clinical isolate
Experimental: (§1) The activity of test compounds against multi-drug resistant bacterial strains was assessed by the disk diffusion assay; a standardised method to assess for the antimicrobial susceptibility of microorganisms (adapted from EUCAST, Version 5, January 2015). In brief, bacterial cultures were suspended in phosphate buffer and spread evenly onto blood agar plates. Cellulose disks (5 mm) were placed onto the agar plates and 3 μl test compound (60 μg/disk) were pipetted to the centre. A panel of standard antibiotics disks (Sigma) were used to control for the antimicrobial resistance profile of the individual strains (quantity as indicated in the table). The plates were then placed into a thermo-incubator and were cultured at 37° C. over-night. Activity was recorded by measuring the zone of clearance (mm) around the disks.

E. coli 13400 = test: as above
Experimental: as §1

E. faecalis DSM13591 = test: as above
Experimental: as §1

K. pneumoniae 13368 = test: as above
Experimental: as §1

[2] = test system: S. aureus (Oxford strain); test: Growth assay for S. aureus (MIC); conditions: background statement for auranofin
Experimental: Stock solution of the test compounds (20 mg/ml) in dimethyl sulfoxide (DMSO) were serially diluted in DMSO and each diluted compound added in duplicate to a 96-well plate to a final DMSO concentration of 2% (v/v). An overnight culture of S. aureus (Oxford strain) grown in tryptic soy broth (TSB) was diluted to approximately 5×10^7 cfu/ml and 150 μl of this sample was added to each well of the 96-well plates. Control wells included an ‘untreated’ control with bacteria in TSB in the presence of 2% DMSO and a negative sample (containing 150 μl TSB growth media in the presence of 2% DMSO). Plates were incubated in a shaking incubator at 37° C. for 22-24 hours and bacterial growth assessed by absorbance at a wavelength of 595 nm. The minimum inhibitory concentration (MIC) was defined as the lowest concentration of compound that inhibited growth compared to the no-treatment control.

V. cholerae = test: In vitro growth inhibition of V. cholerae (MIC); conditions: background statement for auranofin

Molecule	HepG2 cell TD50 [1]	further results
Cc1nc2ccccc2[n]1[Au]=[P](C)(C)C [Compound 45]	5 µg/mL	
C[P](C)(C)=[Au][n]1cc(C(F)(F)F)cn1 [Compound 41]	16 µg/mL	
CC[N]([Au]=[P](C)(C)C)C(C)=O [Compound 4]	7 µg/mL	
CO/N=C(\C(=O)N[C@@H]1C(=O)N2C(C(=O)O)=C(COC(C)=O)CS[C@H]12)c1csc(N)n1 [Cefotaxime]		Size of Clearance of Zone (A. baumannii NC13421; antibiotic disk 30 μg): R; Size of Clearance of Zone (E. coli 13400; antibiotic disk 30 μg): 18 mm; Size of Clearance of Zone (E. faecalis DSM13591; antibiotic disk 30 μg): R; Size of Clearance of Zone (K. pneumoniae 13368; antibiotic disk 30 μg): R
CN1CC[N]([Au]=[P](C)(C)C)C1=O [Compound 5]	6 µg/mL	
CC1C(=O)[N]([Au]=[P](C)(C)C)C(=O)N1c1ccccc1 (stereo not shown) [Compound 16]	10 µg/mL	
C[P](C)(C)=[Au][N]1CCN(c2ccc(F)cc2)C1=O [Compound 27]	4 µg/mL	
C[P](C)(C)=[Au][n]1ccnc1C(F)(F)F [Compound 48]	4 µg/mL	
COc1ccc2c(c1)nc[n]2[Au]=[P](C)(C)C [Compound 39]	9 µg/mL	
COc1ccc(N2CC[N]([Au]=[P](C)(C)C)C2=O)cc1 [Compound 26]	6 µg/mL	
C[P](C)(C)=[Au][N]1CCN(c2ccccc2)C1=O [Compound 6]	9 µg/mL	
C[C@@H](O)[C@H]1C(=O)N2C(C(=O)O)=C(S[C@@H]3CN[C@H](C(=O)Nc4cccc(C(=O)O)c4)C3)[C@H](C)[C@H]12 [Ertapenem]		Size of Clearance of Zone (A. baumannii NC13421; antibiotic disk 10 μg): R; Size of Clearance of Zone (E. coli 13400; antibiotic disk 10 μg): 30 mm; Size of Clearance of Zone (E. faecalis DSM13591; antibiotic disk 10 μg): 14 mm; Size of Clearance of Zone (K. pneumoniae 13368; antibiotic disk 10 μg): R
C[P](C)(C)=[Au][n]1cnnc1 [Compound 38]	7 µg/mL	
CN1C(=O)[N]([Au]=[P](C)(C)C)C(=O)C12CCCC2 [Compound 19]	13 µg/mL	
C[P](C)(C)=[Au][N]1CCCC1=O [Compound 31]	3 µg/mL	
C[P](C)(C)=[Au][N]1Cc2ccccc2C1=O [Compound 20]	2 µg/mL	
C[P](C)(C)=[Au][n]1ncc2cccnc21 [Compound 42]	5 µg/mL	
C[P](C)(C)=[Au][N]1C(=O)COc2ccccc21 [Compound 12]	4 µg/mL	
C[P](C)(C)=[Au][n]1cccn1 [Compound 36]	7.3 µg/mL	
C[P](C)(C)=[Au][N]1CCOCC1=O [Compound 1]	4 µg/mL	
C[P](C)(C)=[Au][N]1CCCOC1=O [Compound 18]	5 µg/mL	
C[P](C)(C)=[Au][n]1cnc2ccccc21 [Compound 44]	5 µg/mL	
C[P](C)(C)=[Au][n]1ccnn1 [Compound 37]	11.9 µg/mL	
CC[P](CC)(CC)=[Au][N]1CCOCC1=O [Compound 3]	6 µg/mL	
Colistin		Size of Clearance of Zone (A. baumannii NC13421; antibiotic disk 10 μg): 11 mm; Size of Clearance of Zone (E. coli 13400; antibiotic disk 10 μg): 12 mm; Size of Clearance of Zone (K. pneumoniae 13368; antibiotic disk 10 μg): 9.5 mm
C[P](C)(C)=[Au][n]1ccccc1=O [Compound 13]	3 µg/mL	
COc1ccc2c(cn[n]2[Au]=[P](C)(C)C)c1 [Compound 50]	3 µg/mL	

Molecule	HepG2 cell TD50 [1]	further results
C[P](C)(C)=[Au][N]1C(=O)C2CCCN2C1=O (stereo not shown) [Compound 15]	3 µg/mL	
C[P](C)(C)=[Au][N]1C(=O)CCC1=O [Compound 7]	11 µg/mL	
C[N]([Au]=[P](C)(C)C)S(C)(=O)=O [Compound 21]	4 µg/mL	
CC[P](CC)(CC)=[Au][N]1C(=O)c2ccccc2C1=O [Compound 11]	4 µg/mL	
C[C@@H](O)[C@H]1C(=O)N2C(C(=O)O)=C(S[C@@H]3CN[C@H](C(=O)N(C)C)C3)[C@H](C)[C@H]12 [Meropenem]		Size of Clearance of Zone (A. baumannii NC13421; antibiotic disk 10 μg): R; Size of Clearance of Zone (E. faecalis DSM13591; antibiotic disk 10 μg): 17 mm; Size of Clearance of Zone (K. pneumoniae 13368; antibiotic disk 10 μg): 22 mm
C[P](C)(C)=[Au][N]1C(=O)COCC1=O [Compound 8]	9 µg/mL	
C[N]([Au]=[P](C)(C)C)S(=O)(=O)c1ccccc1 [Compound 24]	5 µg/mL	
CC(=O)NC[C@H]1CN(c2ccc(N3CCOCC3)c(F)c2)C(=O)O1 [Linezolid]		Size of Clearance of Zone (E. faecalis DSM13591; antibiotic disk 10 μg): 22 mm
C[P](C)(C)=[Au][n]1ccnc1 [Compound 43]	4 µg/mL	
CO/N=C(\C(=O)N[C@@H]1C(=O)N2C(C(=O)O)=C(CSc3nc(=O)c(=O)[nH]n3C)CS[C@H]12)c1csc(N)n1 [Ceftriaxone]		Size of Clearance of Zone (A. baumannii NC13421; antibiotic disk 30 μg): R; Size of Clearance of Zone (E. coli 13400; antibiotic disk 30 μg): R; Size of Clearance of Zone (E. faecalis DSM13591; antibiotic disk 30 μg): R; Size of Clearance of Zone (K. pneumoniae 13368; antibiotic disk 30 μg): R
C[P](C)(C)=[Au][n]1ccn(-c2ccccc2)c1=O [Compound 25]	5 µg/mL	
Cc1nnc(C)[n]1[Au]=[P](C)(C)C [Compound 46]	5 µg/mL	
C[P](C)(C)=[Au][N]1C(=O)CCCC1=O [Compound 14]	7 µg/mL	
CN[C@H](CC(C)C)C(=O)N[C@H]1C(=O)N[C@@H](CC(N)=O)C(=O)N[C@H]2C(=O)N[C@H]3C(=O)N[C@H](C(=O)N[C@H](C(=O)O)c4cc(O)cc(O)c4-c4cc3ccc4O)[C@H](O)c3ccc(c(Cl)c3)Oc3cc2cc(c3O[C@@H]2O[C@H](CO)[C@@H](O)[C@H](O)[C@H]2O[C@H]2C[C@](C)(N)[C@H](O)[C@H](C)O2)Oc2ccc(cc2Cl)[C@H]1O [Vancomycin]		Size of Clearance of Zone (E. faecalis DSM13591; antibiotic disk 30 μg): R
C[P](C)(C)=[Au][N]1CCCCC1=O [Compound 2]	3 µg/mL	
Cc1ncc[n]1[Au]=[P](C)(C)C [Compound 47]	3.9 µg/mL	
C[C@@H](O)[C@H]1C(=O)N2C(C(=O)O)=C(SCCN=CN)C[C@H]12 [Imipenem]		Size of Clearance of Zone (A. baumannii NC13421; antibiotic disk 10 μg): R; Size of Clearance of Zone (E. coli 13400; antibiotic disk 10 μg): 29 mm; Size of Clearance of Zone (E. faecalis DSM13591; antibiotic disk 10 μg): 26 mm; Size of Clearance of Zone (K. pneumoniae 13368; antibiotic disk 10 μg): 18 mm
CN1C(=O)[N]([Au]=[P](C)(C)C)C(=O)C1(C)C [Compound 17]	8 µg/mL	
C[P](C)(C)=[Au][N]1CCCS1(=O)=O [Compound 28]	9 µg/mL	
C[P](C)(C)=[Au][N]1C(=O)c2ccccc2C1=O [Compound 10]	15 µg/mL	
C[P](C)(C)=[Au][n]1cnnn1 [Compound 40]	6 µg/mL	
C[P](C)(C)=[Au][n]1cnc2cccnc21 [Compound 51]	3 µg/mL	
C[P](C)(C)=[Au][N]1CCOC1=O [Compound 9]	7 µg/mL	
CC1(C)OC(=O)[N]([Au]=[P](C)(C)C)C1=O [Compound 30]	3 µg/mL	
C[P](C)(C)=[Au][N]1CCCCS1(=O)=O [Compound 29]	3 µg/mL	
CC(=O)OC[C@H]1O[C@@H]([S-])[C@H](OC(C)=O)[C@@H](OC(C)=O)[C@@H]1OC(C)=O.CCP(CC)CC.[Au+] [Auranofin]		MIC, in vitro growth of S. aureus (Oxford strain) [2]: 0.6 to 0.9 µg/mL; MIC, in vitro growth of V. cholerae (V. cholerae): 2.5 µg/mL
